Like-named read-outs stand apart in the source and are kept apart here.
Experiments:
NanoLuc = NanoLuc (Oplophorus gracilirostris, UniProt Q9GV45, A31E/A60N/A81I/F95D/I117V/K70R/L54V/L99Q/M102K/N193R/P142E/Q151K/Q38R/Q45L/V71I/Y165I); conditions: cited from earlier work
Rluc8 = Rluc8 (Renilla reniformis, UniProt P27652, A143M/A55T/C124A/K136R/M185V/M253L/S130A/S287L); conditions: RLuc mutant Rluc8; cited from earlier work
[1] = system: luciferase-expressing HEK 293T cells; experiment: Bioluminescence imaging of intact luciferase-expressing HEK 293T cells; format: cell-based, Human; conditions: FLuc-expressing HEK 293T cells, millimolar substrate
Excerpt: Images were acquired without a filter (1c) or with a 695±25 nm NIR emission filter (1e). Panels 2d and 2f are quantification results for Panels 2c and 2e, respectively. […] Data are shown as mean and s.d. of three independent experiments.
Data are shown as mean and s.d. of three independent experiments.
HEK 293T (purchased from ATCC and tested for mycoplasma by PCR), which is one of the most widely used and readily transfectable cell lines, was used for all tissue culture transfections. HEK 293T cells were cultured at 37° C. with 5% CO2 in Dulbecco's Modified Eagle's Medium (DMEM) supplemented with 10% fetal bovine serum (FBS). Transfection mixtures were prepared with 3 μg of plasmid DNA and 9 μg of PEI (polyethylenimine, linear, MW 25 kDa) in DMEM and incubated for 20 min at room temperature. The medium was first aspirated, and subsequently, the transfection mixtures were added to cells at 70% confluency on 35-mm culture dishes seeded one day prior to transfection. […]
The number and density of cells in DPBS suspension were determined using a hemocytometer. […] To use the luminescence dark box to directly image cells, we added luciferase-expressing HEK293T cells (2000 cells per well with ˜70% transfection efficiency) and the corresponding luciferin substrates into wells of a white-wall, 96-well plate. […] All images were analyzed using the Fiji image analysis software [1].

purified luciferases = experiment: In vitro bioluminescence intensity with purified recombinant proteins; format: biochemical; conditions: assayed with NanoLuc
Excerpt: (§1) Signals were integrated until the substrates were completely consumed.

HEK 293T cells [2] = experiment: Evaluation of the cytotoxicity of luciferins
Protocol: (§2) FIG. 15 is a panel showing the evaluation of the cytotoxicity of various luciferins. (15a) Viability of HEK 293T cells determined using RealTime-Glo™ MT Cell Viability Assay (Promega) after incubation with individual luciferin substrates for 24 h at 37° C. (15b) Evaluation of cell morphology and staining of dead cells. Cells incubated with the indicated luciferins for 24 h at 37° C. were stained with propidium iodide (PI), a fluorescent dye for dead cells.
(§3) Cell viability was determined using RealTime-Glo™ MT Cell Viability Assay (Promega) after incubation of HEK 293T cells with individual luciferin substrates for 24 h at 37° C. Cell morphology was further evaluated using microscopy. Briefly, HEK 293T cells in 35-mm culture dishes were washed twice with 400 μL DPBS pre-warmed to 37° C., and further incubated in 500 μL DPBS containing 20 μg/mL propidium iodide (PI), a fluorescent stain for dead cells, at room temperature for 15 min under light-shielded conditions. Cells were further rinsed with pre-warmed 300 μL DPBS three times to remove residual PI. Cells in 300 μL DPBS were next analyzed on a Motic AE31 microscope equipped with a 100 W Short-Arc Mercury lamp, a 540/25 nm excitation filter, a 565 nm longpass dichroic mirror, and a 605/55 nm emission filter.

BALB/c mice = experiment: Bioluminescence imaging in deep tissues of live mice (hydrodynamic transfection); format: in vivo
Excerpt: FIG. 2 is a panel showing bioluminescence imaging of luciferase-luciferin pairs at superficial sites and in deep tissues of live mice. […] The group numbers in panel 2b are aligned with those in panel 2a. Two injection sites (one for luciferase-expressing cells and one for empty vehicle controls) for each mouse are illustrated with red arrows. […] Data are shown as mean and s.d. (n=3). […] Data are shown as mean and s.d. (n=4 for teLuc, Antares, and Antares2 with 3.3 μmol substrates, and n=3 for all other groups).
FIG. 16 is a graph of bioluminescence kinetics of IP injected luciferins (3.3 μmol each) in hydrodynamically transfected mice.
Hydrodynamic transfections were performed on BALB/c mice as described elsewhere. Briefly, 20 μg of each luciferase-expressing plasmid in sterilized saline (volume equivalent to 9% bodyweight of the treated mouse) was injected into restrained mice via the tail vein over 4-8 sec. Mice were allowed to recover on heat pads and were monitored until their breathing rate returned to normal. […] To inject 3.3 μmol DTZ or furimazine, the total volumes were increased to 500 μL. […] The Fiji image analysis software was used to process images and derive integrated intensities.

HEK 293T cells [3] = experiment: Cytotoxicity of luciferins (RealTime-Glo MT Cell Viability Assay; propidium iodide staining); format: cell-based; conditions: 24 h at 37° C., millimolar concentrations
Protocol: as §2, §3

[4] = molecular target: NanoLuc luciferase (Oplophorus gracihrostris-derived, parent, SEQ ID NO: 1) (Oplophorus gracilirostris, UniProt Q9GV45, A31E/A60N/A81I/F95D/I117V/K70R/L54V/L99Q/M102K/N193R/P142E/Q151K/Q38R/Q45L/V71I/Y165I); experiment: Apparent Michaelis constant and kcat, purified NanoLuc, bioluminescence; conditions: kcat=Imax/(QY*[E]); assay buffer pH 6.0; mean ± s.d., n = 3
Excerpt: (§4) The final concentrations of all enzymes were 100 pM.
as §1

[5] = molecular target: ReNL (NanoLuc fused to fluorescent protein) (Oplophorus gracilirostris, UniProt Q9GV45); experiment: Apparent Michaelis constant and kcat, ReNL, bioluminescence; format: biochemical; conditions: assay buffer pH 6.0, mean ± s.d., n = 3
Excerpt: as §4, §1

[6] = molecular target: Antares (NanoLuc fused to CyOFP1) (Oplophorus gracilirostris, UniProt Q9GV45); experiment: Apparent Michaelis constant and kcat, Antares, bioluminescence; format: biochemical; conditions: assay buffer pH 6.0, mean ± s.d., n = 3
Excerpt: as §4
(9a) Primary structural arrangement of Antares and Antares2.
as §1

[7] = apparent, 100 pM enzyme, substrate 0.78 to 50 μM

Chain of Antares (NanoLuc fused to CyOFP1) (Q9GV45 28-196): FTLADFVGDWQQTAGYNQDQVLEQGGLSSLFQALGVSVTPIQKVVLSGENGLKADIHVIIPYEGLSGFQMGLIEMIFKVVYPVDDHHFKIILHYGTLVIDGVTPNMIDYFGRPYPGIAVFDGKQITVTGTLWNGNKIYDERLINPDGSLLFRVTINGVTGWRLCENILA
Chain of ReNL (NanoLuc fused to fluorescent protein) (Q9GV45 28-196): as above
Chain of NanoLuc (Q9GV45 28-196 with tags or gaps with the stated changes limits assumed): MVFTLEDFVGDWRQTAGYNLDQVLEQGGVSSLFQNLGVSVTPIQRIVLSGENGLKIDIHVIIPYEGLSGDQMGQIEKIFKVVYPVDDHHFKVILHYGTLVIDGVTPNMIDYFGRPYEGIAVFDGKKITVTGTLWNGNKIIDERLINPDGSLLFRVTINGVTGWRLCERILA
Chain of NanoLuc luciferase (Oplophorus gracihrostris-derived, parent, SEQ ID NO: 1) (Q9GV45 28-196 A31E/Q38R/Q45L/L54V/A60N/K70R/V71I/A81I/F95D/L99Q/M102K/I117V/P142E/Q151K/Y165I/N193R, looked up): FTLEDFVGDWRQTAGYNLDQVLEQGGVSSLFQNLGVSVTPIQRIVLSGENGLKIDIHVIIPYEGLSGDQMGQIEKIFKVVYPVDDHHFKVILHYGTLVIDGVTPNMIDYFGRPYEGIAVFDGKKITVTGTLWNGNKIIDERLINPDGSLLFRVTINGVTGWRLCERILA
Chain of Rluc8 (P27652 whole entry A55T/C124A/S130A/K136R/A143M/M185V/M253L/S287L): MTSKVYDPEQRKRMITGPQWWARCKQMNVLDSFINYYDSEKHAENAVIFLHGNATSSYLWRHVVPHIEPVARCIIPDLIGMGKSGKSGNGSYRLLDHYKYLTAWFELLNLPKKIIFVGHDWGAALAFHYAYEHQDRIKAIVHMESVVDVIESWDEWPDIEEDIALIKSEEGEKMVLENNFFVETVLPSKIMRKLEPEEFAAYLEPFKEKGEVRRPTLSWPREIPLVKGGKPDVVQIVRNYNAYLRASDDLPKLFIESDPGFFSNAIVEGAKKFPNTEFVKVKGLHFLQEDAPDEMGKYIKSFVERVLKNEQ

6-pi-OH-CTZ
bioluminescence with NanoLuc (NanoLuc): hardly any bioluminescence
red-shift of Rluc8 bioluminescence (Rluc8): 47 nm

O=C(O)[C@H]1CSC(c2nc3ccc(O)cc3s2)=N1 [D-luciferin]
bioluminescence intensity with FLuc compared with teLuc or Antares2 with micromolar DTZ [1]: 1-2 orders of magnitude lower

O=c1c(Cc2ccccc2)nc2c(-c3ccccc3)[nH]c(-c3ccccc3)cn1-2 [DTZ, diphenylterazine]
brightness relative to furimazine (purified luciferases): reduced brightness
cell toxicity (HEK 293T cells [2]; HEK 293T cells, 24 h at 37° C., RealTime-Glo MT Cell Viability Assay): minimal cell toxicity at millimolar concentrations
bioluminescence kinetics after intraperitoneal injection (BALB/c mice; 3.3 μmol, hydrodynamically transfected mice): extended kinetics
background emission in untransfected BALB/c mice (BALB/c mice; DTZ injection): did not yield any background emission

O=c1c(Cc2ccccc2)nc2c(-c3ccccc3)[nH]c(-c3ccccc3)cn1-2 [DTZ]
cell toxicity (HEK 293T cells [3]): minimal cell toxicity

O=c1c(Cc2ccccc2)nc2c([Se]c3ccccc3)[nH]c(-c3ccccc3)cn1-2 [STZ, 2-benzyl-6-phenyl-8-(phenylselanyl)imidazo[1,2-a]pyrazin-3(7H)-one]
brightness relative to furimazine (purified luciferases): reduced brightness
cell toxicity (HEK 293T cells [2]): induced cell death
cytotoxicity by propidium iodide staining of dead cells (HEK 293T cells [2]): further confirmed by the red fluorescence of PI

O=c1c(Cc2ccco2)nc2c(Cc3ccccc3)[nH]c(-c3ccccc3)cn1-2 [furimazine]
kcat [4]: 88.2 ± 1.7 s⁻¹
Km [5, 7]: 14.5 ± 1.3 µM
kcat ([5]; kcat=Imax/(QY*[E])): 104 ± 4 s⁻¹
Km [6, 7]: 11.1 ± 0.5 µM
kcat ([6]; kcat=Imax/(QY*[E])): 112 ± 2 s⁻¹
cell toxicity (HEK 293T cells [2]): induced cell death
cytotoxicity by propidium iodide staining of dead cells (HEK 293T cells [2]; HEK 293T cells, 24 h at 37° C.): further confirmed by the red fluorescence of PI

AkaLumine-HCl
bioluminescence intensity with FLuc compared with teLuc or Antares2 with micromolar DTZ [1]: 1-2 orders of magnitude lower
cell toxicity (HEK 293T cells [2]): induced cell death
cytotoxicity by propidium iodide staining of dead cells (HEK 293T cells [2]; HEK 293T cells, 24 h at 37° C.): further confirmed by the red fluorescence of PI

Reference: patent US10202584B2, “Red-shifted luciferase-luciferin pairs for enhanced bioluminescence” (The Regents of the University of California, priority 2016, dated 2019)
